A melting point compilation (Tetko et al.; mined from patent text by program, amines drawn as free bases though some values may be those of a salt)
Non-standard residues stand in square brackets, D forms with d. Residues, ends and D or L forms follow the SMILES beside them. ξ: configuration not given here. *: point of attachment. Boc = CC(C)(C)OC(=O)*; ξA = CC(N)C(=O)O; NHNH2 = NN*

melting point [°C]	Structure (SMILES)
136 to 138	Cc1ccc(-n2nc(C(F)F)cc2-c2ccc(S(C)(=O)=O)cc2)cc1Br
139 to 141	Cc1[nH]c2ccccc2c1C(C)c1cccnc1 (stereo not drawn)
> 295	CCCn1c(=O)[nH]c(=O)c2[nH]c(/C=C/c3ccccc3)nc21
128 to 130	CC(C)n1c(C(=O)O)c(-c2ccc(F)cc2)c2ccccc2c1=O
171 to 177	S=C(NCCc1cccc(Cl)c1)Nc1nc2ccccc2[nH]1
111 to 112	CCOC(=O)CCc1cn(Cc2cccc(C(=O)Nc3cccnc3)c2)nc1-c1ccccc1
112 to 113	O=CNC(Cc1ccccc1)C1CC(Cc2ccccc2)=NO1 (stereo not drawn)
79 to 80	CCOC(=O)c1nc(/C=C/c2ccccc2)ns1
72.2 to 73.9	[N-]=[N+]=NCC(O)COc1ccc(-c2ccccc2)cc1 (stereo not drawn)
156 to 158	c1ccc(-c2nc3n(n2)Cc2ccccc2-3)cc1
82 to 84	CCCCCCC(=O)N(CCCCn1ccnc1)C1=Nc2cccc3cccc1c23
201 to 208	Cc1[nH]c(=O)ccc1-c1ccccc1
102 to 108	CNS(=O)(=O)c1ccccc1Nc1nc(Nc2ccc3c(c2)CCN(CCOC)CC3)ncc1Cl
159 to 161	CCCCN1CCCN(c2ccccc2)c2cc(Cl)ccc21
124 to 128	Nc1ncccc1OCc1c(F)cccc1F

Further lines, the compound ahead of its results:

Structure (SMILES)	melting point [°C]
COc1ccc(CNS(=O)(=O)Cc2ccc3[nH]cc(CCN(C)C)c3c2)cc1	200 to 201
COc1ccc(CCNC(=O)CCCCC(=O)NCCNc2ccccc2)cc1OC	109 to 111
CCCCC[C@@H](C(=O)O)c1cccc2c1OCO2	47 to 48
CCCc1c(OCCCOc2ccc(CC(=O)O)cc2F)ccc(C(C)=O)c1O	121 to 123
NS(=O)(=O)c1cc(C(=O)O)cc([N+](=O)[O-])c1Nc1ccc(Cl)cc1	241 to 243
CNC(=O)N1CCC(C(c2ccc(F)cc2)N(Cc2ccc(F)cc2)C(=O)NC)CC1 (stereo not drawn)	120 to 162
CC(NC(=O)CNC(=O)CNC(=O)CNC(=O)OC(C)(C)C)C(=O)NCC(=O)NN (stereo not drawn) (Boc-GGG[ξA]G-NHNH2)	221 to 223
CC(CN1CCN(c2ccc(F)cc2)CC1)CN1c2cccc3cccc(c23)S1(=O)=O (stereo not drawn)	133
CCOC(=O)C1=C(C)NN=C(C(=O)OC)C1c1cccc(Cl)c1 (stereo not drawn)	139
Cc1cc(CCCCCCCOc2ccc(C(=O)N(C)C)cc2)on1	58 to 59
CC(=O)c1ccc(C=C(C)c2ccc3c(c2)C(C)(C)CCO3)cc1	109 to 110
O=C1CC(C(=O)NC(Cc2ccc(C(F)(F)F)cc2)C(O)c2ccc(F)cc2)c2ccccc21 (racemic)	237 to 238
CC1CCCN1Cc1ccc(N/C=C2\C(=O)NC(=O)c3ccc(I)cc32)cc1 (stereo not drawn)	157 to 158
O=C(N[C@@H](CCCCNSc1ncccc1[N+](=O)[O-])C(=O)N[C@H](CCC(=O)N1c2ccccc2C[C@H]1C(=O)O)C(=O)O)OCc1ccc2c(c1)OCO2	100 to 110
COCOc1ccc(COc2cc3c(cc2-c2cc(C=CC(=O)O)ccc2OC)C(C)(C)CCC3(C)C)cc1	106 to 108
COC1=C(OC)C(=O)C2=C(CCC(CCOc3ccc(C#N)cc3)CC2)C1=O	105 to 107
CC(CCCCCc1nc(-c2ccc(Cl)cc2)c(-c2ccc(Cl)cc2)o1)c1nnn[nH]1 (racemic)	144
CC(C)CCCC(=S)SCC(C)C	43 to 44
N#Cc1cc(N)ccc1N1CCCCC1	148 to 149
O=C(Nc1cccc2c(=O)cc(C(=O)O)oc12)c1ccc2c(c1)CC(CSCc1ccccc1)O2 (stereo not drawn)	122 to 125
CN(C1CCN(CCCC(F)(F)F)CC1)S(=O)(=O)c1ccc(Nc2nccc(Nc3ccc(F)c(F)c3)n2)cc1	192
CC(C(=O)O)c1ccc2c(c1)Cc1cc([N+](=O)[O-])ccc1-2 (stereo not drawn)	206 to 209
CCCCCCCCn1c2cc(I)ccc2c2ccc(I)cc21	82 to 84
